Source: the supplement of paper PMC11061612

Key:
[1] = compound: CCN(CCO)CCCOc1ccc2c(Nc3cc(CC(=O)Nc4cccc(F)c4)[nH]n3)ncnc2c1 [AZD2811]; details: max 1 µM
Outline: (§1)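 Viability was measured with CellTiter-Glo 2.0 luminescence after 72 hours of dosing at a final DMSO of typically 0.2%, and scaled between blank-well and DMSO-well means. Beforehand, cancer cell lines sat 24 hours at 37°C and 5% CO2 in 1536-well plates in 7.5 μl DMEM/F12 or RPMI with 10% FBS. A non-linear mixed effects model fitted two-parameter logistic curves to the dose responses. The single-agent IC50 comes from these fits.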

[2] = compound: CC(=O)c1c(C)c2cnc(Nc3ccc(N4CCNCC4)cn3)nc2n(C2CCCC2)c1=O [Palbociclib]; details: max 10 µM
Outline: as §1

[3] = compound: C[C@@H](Oc1cc(-c2cnn(C3CCNCC3)c2)cnc1N)c1c(Cl)ccc(F)c1Cl [Crizotinib]; details: max 10 µM
Outline: as §1

[4] = compound: COc1cc2ncnc(Nc3ccc(F)c(Cl)c3)c2cc1OCCCN1CCOCC1 [Gefitinib]; details: max 10 µM
Outline: as §1

[5] = compound: C[C@@H](c1ccc2nccn2c1)n1nnc2ncc(-c3cnn(C)c3)nc21 [Savolitinib]; details: max 1 µM
Outline: as §1

[6] = compound: CC1(C)CCC(CN2CCN(c3ccc(C(=O)NS(=O)(=O)c4ccc(NCC5CCOCC5)c([N+](=O)[O-])c4)c(Oc4cnc5[nH]ccc5c4)c3)CC2)=C(c2ccc(Cl)cc2)C1 [Venetoclax]; details: max 1 µM
Outline: as §1

[7] = compound: CC(=O)O[C@H]1C(=O)[C@@]2(C)[C@H]([C@H](OC(=O)c3ccccc3)[C@]3(O)C[C@H](OC(=O)[C@H](O)[C@@H](NC(=O)c4ccccc4)c4ccccc4)C(C)=C1C3(C)C)[C@]1(OC(C)=O)CO[C@@H]1C[C@@H]2O [Paclitaxel]; details: max 3 µM
Outline: as §1

[8] = compound: C=CCn1c(=O)c2cnc(Nc3ccc(N4CCN(C)CC4)cc3)nc2n1-c1cccc(C(C)(C)O)n1 [AZD1775]; details: max 3 µM
Outline: as §1

[9] = compound: CC(C)n1c(=O)n(C)c2cnc3cc(F)c(-c4ccc(OCCCN5CCCCC5)nc4)cc3c21 [AZD1390]; details: max 0.3 µM
Outline: as §1

[10] = compound: C[C@@H]1COCCN1C2=NC(=NC(=C2)C3(CC3)[S@](=N)(=O)C)C4=C5C=CNC5=NC=C4 [AZD6738]; details: max 10 µM
Outline: as §1

[11] = compound: Cc1nc(-c2cn3c(n2)-c2ccc(-c4cnn(C(C)(C)C(N)=O)c4)cc2OCC3)n(C(C)C)n1 [Taselisib]; details: max 10 µM
Outline: as §1

[12] = compound: Cc1c2c(nn1C)CSCc1cc(n(C)n1)CSc1cc(c3ccccc3c1)OCCCc1c(C(=O)O)n(C)c3c-2c(Cl)ccc13 [AZD5991]; details: max 1 µM
Outline: as §1

[13] = compound: Cc1cc2ncnn2cc1Nc1ncc2c(n1)n(C1CCOCC1)c(=O)n2C [AZD7648]; details: max 10 µM
Outline: as §1

[14] = compound: CCc1c2c(nc3ccc(O)cc13)-c1cc3c(c(=O)n1C2)COC(=O)[C@]3(O)CC [SN-38]; details: max 0.3 µM
Outline: as §1

[15] = compound: NC1(c2ccc(-c3nc4ccn5c(=O)[nH]nc5c4cc3-c3ccccc3)cc2)CCC1 [MK-2206]; details: max 10 µM
Outline: as §1

[16] = compound: O=C(c1cc(Cc2n[nH]c(=O)c3ccccc23)ccc1F)N1CCN(C(=O)C2CC2)CC1 [Olaparib]; details: max 10 µM
Outline: as §1

[17] = compound: Nc1ccn([C@@H]2O[C@H](CO)[C@@H](O)C2(F)F)c(=O)n1 [Gemcitabine]; details: max 0.3 µM
Outline: as §1

[18] = compound: CC(=O)Nc1cccc(-n2c(=O)n(C3CC3)c(=O)c3c(Nc4ccc(I)cc4F)n(C)c(=O)c(C)c32)c1 [Trametinib]; details: max 1 µM
Outline: as §1

[19] = compound: CN(CC[C@H](CSC1=CC=CC=C1)NC2=C(C=C(C=C2)S(=O)(=O)NC(=O)C3=CC=C(C=C3)N4CCC(CC4)[C@H](C5=CC=CC=C5C6=CC=C(C=C6)Cl)O)S(=O)(=O)C(F)(F)F)CCO [AZD4320]; details: max 1 µM
Outline: as §1

[20] = compound: COc1cccc(OCCCN)c1-c1cc(Nc2cnc(C#N)cn2)n[nH]1 [Prexasertib]; details: max 1 µM
Outline: as §1

[21] = compound: Cn1cnc2c(F)c(Nc3ccc(Br)cc3Cl)c(C(=O)NOCCO)cc21 [Selumetinib]; details: max 10 µM
Outline: as §1

[22] = compound: O=C(Nc1ccc2[nH]nc(-c3ccncc3)c2c1)[C@@H]1CCN(CC(=O)N2CCN(c3ccc(-c4ncccn4)cc3)CC2)C1; details: max 5 µM
Outline: as §1

[23] = compound: CS(=O)(=O)CCNCc1ccc(-c2ccc3ncnc(Nc4ccc(OCc5cccc(F)c5)c(Cl)c4)c3c2)o1 [Lapatinib]; details: max 10 µM
Outline: as §1

[24] = compound: COc1cc(Nc2ncc3c(n2)-c2ccc(Cl)cc2C(c2c(F)cccc2OC)=NC3)ccc1C(=O)O [Alisertib]; details: max 10 µM
Outline: as §1

[25] = compound: CN(C)CCCOc1ccc(-c2ccc3ncc4c(c3c2)n(C2CCOCC2)c(=O)n4C)cn1 [AZD0156]; details: max 3 µM
Outline: as §1

[26] = compound: C1CN(CCC1(C(=O)N[C@@H](CCO)C2=CC=C(C=C2)Cl)N)C3=NC=NC4=C3C=CN4 [AZD5363]; details: max 10 µM
Outline: as §1

[27] = compound: COc1nnc2ccc(N3CCC(c4ccc(OCCN5CCN(C)C(=O)[C@H]5C)cc4)CC3)nn12 [AZD5153]; details: max 1 µM
Outline: as §1

[28] = compound: C1CC(C1)(C(=O)[O-])C(=O)[O-].N.N.[Pt+2] [Carboplatin]; details: max 10 µM
Outline: as §1

[29] = compound: C[C@@H](Nc1cc(F)cc(F)c1)c1cc(C(=O)N(C)C)cc2c(=O)cc(N3CCOCC3)oc12 [AZD8186]; details: max 10 µM
Outline: as §1

[30] = compound: COc1cc([C@@H]2c3cc4c(cc3[C@@H](O[C@@H]3O[C@@H]5CO[C@@H](C)O[C@H]5[C@H](O)[C@H]3O)[C@H]3COC(=O)[C@H]23)OCO4)cc(OC)c1O [Etoposide]; details: max 10 µM
Outline: as §1

[31] = compound: COc1cccc2c1C(=O)c1c(O)c3c(c(O)c1C2=O)C[C@@](O)(C(=O)CO)C[C@@H]3O[C@H]1C[C@H](N)[C@H](O)[C@H](C)O1 [Doxorubicin]; details: max 1 µM
Outline: as §1

[32] = compound: N#Cc1cnc(Nc2cc(NC[C@H]3CNCCO3)c(C(F)(F)F)cn2)cn1 [SRA737]; details: max 10 µM
Outline: as §1

[33] = compound: CC1=CN2[C@@H](C1)C=NC3=CC(=C(C=C3C2=O)OC)OCCCCCOC4=C(C=C5C(=C4)N=C[C@@H]6CC(=CN6C5=O)C)OC [SG3199]; details: max 0.001 µM
Outline: as §1

[34] = compound: CC1=C(C(=CC=C1)Cl)NC(=O)C2=CN=C(S2)NC3=CC(=NC(=N3)C)N4CCN(CC4)CCO [Dasatinib]; details: max 2 µM
Outline: as §1

[35] = compound: O=c1[nH]cc(F)c(=O)[nH]1 [5-Fluorouracil]; details: max 20 µM
Outline: as §1

Cell Line | IC50, cell viability 72 h [1] | IC50, cell viability 72 h [2] | IC50, cell viability 72 h [3] | IC50, cell viability 72 h [4] | IC50, cell viability 72 h [5] | IC50, cell viability 72 h [6] | IC50, cell viability 72 h [7] | IC50, cell viability 72 h [8] | IC50, cell viability 72 h [9] | IC50, cell viability 72 h [10] | IC50, cell viability 72 h [11] | IC50, cell viability 72 h [12] | IC50, cell viability 72 h [13] | IC50, cell viability 72 h [14] | IC50, cell viability 72 h [15] | IC50, cell viability 72 h [16] | IC50, cell viability 72 h [17] | IC50, cell viability 72 h [18] | IC50, cell viability 72 h [19] | IC50, cell viability 72 h [20] | IC50, cell viability 72 h [21] | IC50, cell viability 72 h [22] | IC50, cell viability 72 h [23] | IC50, cell viability 72 h [24] | IC50, cell viability 72 h [25] | IC50, cell viability 72 h [26] | IC50, cell viability 72 h [27] | IC50, cell viability 72 h [28] | IC50, cell viability 72 h [29] | IC50, cell viability 72 h [30] | IC50, cell viability 72 h [31] | IC50, cell viability 72 h [32] | IC50, cell viability 72 h [33] | IC50, cell viability 72 h [34] | IC50, cell viability 72 h [35]
COLO-320-HSR (Colorectal Carcinoma) | > 1000 nM | > 10000 nM | > 10000 nM | > 10000 nM | > 1000 nM | > 1000 nM | 411 nM | 459 nM | > 300 nM | 7940 nM | > 10000 nM | 489 nM | > 10000 nM | > 300 nM | > 10000 nM | > 10000 nM | 260 nM | > 1000 nM | > 1000 nM | 232 nM | > 10000 nM | > 5000 nM | > 10000 nM | > 10000 nM | > 3000 nM | > 10000 nM | > 1000 nM | > 10000 nM | > 10000 nM | > 10000 nM | > 1000 nM | > 10000 nM | > 1 nM | > 2000 nM | > 20000 nM
BICR22 (Oral Cavity Carcinoma) | > 1000 nM | > 10000 nM | > 10000 nM | > 10000 nM | > 1000 nM | > 1000 nM | < 3 nM | 1850 nM | > 300 nM | 3410 nM | 928 nM | > 1000 nM | > 10000 nM | 6.59 nM | > 10000 nM | > 10000 nM | 12.1 nM | > 1000 nM | > 1000 nM | 54.5 nM | > 10000 nM | > 5000 nM | > 10000 nM | 6990 nM | > 3000 nM | > 10000 nM | > 1000 nM | > 10000 nM | > 10000 nM | 3150 nM | 158 nM | > 10000 nM | > 1 nM | > 2000 nM | 1850 nM
CAPAN-2 (Pancreatic Carcinoma) | > 1000 nM | > 10000 nM | > 10000 nM | > 10000 nM | > 1000 nM | > 1000 nM | > 3000 nM | 2700 nM | > 300 nM | > 10000 nM | > 10000 nM | > 1000 nM | > 10000 nM | > 300 nM | > 10000 nM | > 10000 nM | > 300 nM | > 1000 nM | > 1000 nM | 646 nM | > 10000 nM | > 5000 nM | > 10000 nM | > 10000 nM | > 3000 nM | > 10000 nM | > 1000 nM | > 10000 nM | > 10000 nM | > 10000 nM | > 1000 nM | > 10000 nM | > 1 nM | 210 nM | > 20000 nM
CCK-81 (Colorectal Carcinoma) | > 1000 nM | > 10000 nM | 8320 nM | 997 nM | > 1000 nM | > 1000 nM | 101 nM | 661 nM | > 300 nM | 1570 nM | 1180 nM | 634 nM | > 10000 nM | 76.7 nM | > 10000 nM | > 10000 nM | 50.3 nM | 208 nM | > 1000 nM | 10.7 nM | 9240 nM | 4810 nM | 484 nM | > 10000 nM | > 3000 nM | > 10000 nM | 160 nM | > 10000 nM | > 10000 nM | > 10000 nM | > 1000 nM | 876 nM | > 1 nM | > 2000 nM | 7320 nM
VCaP (Prostate Carcinoma) | > 1000 nM | > 10000 nM | > 10000 nM | > 10000 nM | > 1000 nM | > 1000 nM | 22.4 nM | 1450 nM | > 300 nM | > 10000 nM | 3150 nM | 316 nM | > 10000 nM | 205 nM | 9700 nM | > 10000 nM | 65 nM | > 1000 nM | > 1000 nM | 85.4 nM | > 10000 nM | > 5000 nM | > 10000 nM | > 10000 nM | > 3000 nM | 7960 nM | 122 nM | > 10000 nM | > 10000 nM | 9350 nM | > 1000 nM | > 10000 nM | > 1 nM | > 2000 nM | > 20000 nM
